Each structure is given as a SMILES string.

This experiment has as its system small green leafhoppers. The experiment is described as follows: Insecticidal activity of pesticides on small green leafhoppers on tea trees (Table IX). It counts as in vivo. Also on record: 1d after Spray Efficacy (%) / 3d after Spray Efficacy (%) / 7d after Spray Efficacy (%): concentration or dose not given beside the values. Here is the method:
Ninety-eight kilograms of this pesticide was mixed with 2 Kg of imidacloprid with low toxicity to mammals. The mixture was tested for its insecticidal efficacy on small green leafhoppers on tea trees and compared with those of 40% dichlorophos emulsion and imidacloprid, a highly toxic pesticide, and the extract of Sophora alopecuroides as described in section 1) under “Extract of alkaloids from plants”.

In the case of `COP(=O)(OC)OC=C(Cl)Cl` [Dichlorphos, dichlorophos], the “1d after Spray Efficacy (%)” value is 68.8%, the “1d after Spray Pests +/− Rate (%)” value is listed as −43.48%, the “3d after Spray Efficacy (%)” value amounted to 64.43% and the “3d after Spray Pests +/− Rate (%)” value was −60.87%. Besides, the “7d after Spray Efficacy (%)” value worked out at 60.32% and the “7d after Spray Pests +/− Rate (%)” value was −60.32%.

Consider `O=[N+]([O-])NC1=NCCN1Cc1ccc(Cl)nc1` [Imidacloprid, imidacloprid], for which the “1d after Spray Efficacy (%)” value came out at 67.8%, the “1d after Spray Pests +/− Rate (%)” value is listed as −48.47%, the “3d after Spray Efficacy (%)” value stood at 61.3% and the “3d after Spray Pests +/− Rate (%)” value is on record as −60.3%. For the same molecule, the “7d after Spray Efficacy (%)” value worked out at 60.7% and the “7d after Spray Pests +/− Rate (%)” value is reported as −60.7%.

The values above are taken from patent US20020192256A1, “Water miscible pesticide containing a synergistic cocktail of plant alkaloids” (priority 2000, published 2002).
